According to the NIST ThermoML archive (doi:10.1021/je900034d):
± gives the expanded uncertainty stated by the source.

Key:
[1] = Crystal; DTA
[2] = Molar enthalpy of transition or fusion; conditions: Crystal; DSC

Normal melting temperature [1] [°C]	Molar enthalpy of transition or fusion [2] [kcal/mol]	SMILES
59.7 ± 0.5	4.16 ± 0.215	c1ccc(-c2ccncc2)nc1 [2,4'-bipyridine]
172.4 ± 0.5	5.21 ± 0.263	c1cnc2ccc3ncccc3c2c1 [4,7-phenanthroline]
61.0 ± 0.5	4.49 ± 0.167	c1ccc(-c2ccncn2)cc1 [4-phenylpyrimidine]
104.4 ± 0.5	3.85 ± 0.478	c1cc(-c2ccncc2)ccn1 [γ,γ'-bipyridyl]

SMILES	Normal melting temperature [1] [°C]	Molar enthalpy of transition or fusion [2] [kcal/mol]
c1cnc2c(c1)ccc1ncccc12 [1,5-diazaphenanthrene]	77.2 ± 0.5	4.35 ± 0.167
